According to patent US20130040882A1, “USE OF FIBROBLAST GROWTH FACTOR FRAGMENTS” (NOVARTIS AG, priority 2003, published 2013):

Test system: uterine gene expression
Assay: Gene expression profiling (HGU133A) in the uterus of ovariectomized monkeys treated with estradiol, tamoxifen or raloxifene
Type: in vivo, cynomolgus monkeys (Macaca fascicularis)
Conditions: uterus, OVX monkeys

## O=C(c1ccc(OCCN2CCCCC2)cc1)c1c(-c2ccc(O)cc2)sc2cc(O)ccc12 [raloxifene]
  Fold change relative to SHAM control: Fibulin 1: 0.8 fold
  Fold change relative to SHAM control: G1 to S phase transition 1: 0.7 fold
  Fold change relative to SHAM control: Growth associated protein 43: 0.7 fold
  Fold change relative to SHAM control: H2A histone family, member Y: 0.8 fold
  Fold change relative to SHAM control: Heparan sulfate proteoglycan 2 (perlecan): 0.6 fold
  Fold change relative to SHAM control: Histone H2A.F/Z variant: 1.0 fold
  Fold change relative to SHAM control: Insulin-like growth factor binding protein 2, 36 kda: 0.7 fold
  Fold change relative to SHAM control: Insulin-like growth factor binding protein 5: 1.1 fold
  Fold change relative to SHAM control: Intercrine-alpha, mrna sequence: 0.8 fold
  Fold change relative to SHAM control: Laminin, beta 1: 0.8 fold
  Fold change relative to SHAM control: Latent transforming growth factor beta binding protein 1: 0.8 fold
  Fold change relative to SHAM control: Matrix metalloproteinase 19: 0.2 fold
  Fold change relative to SHAM control: Nidogen (enactin): 1.7 fold
  Fold change relative to SHAM control: Osteoglycin (osteoinductive factor, mimecan): 0.7 fold
  Fold change relative to SHAM control: Peroxiredoxin 1: 0.8 fold
  Fold change relative to SHAM control: Pituitary tumour-transforming 1 interacting protein: 0.7 fold
  Fold change relative to SHAM control: Procollagen C-endopeptidase enhancer: 0.8 fold
  Fold change relative to SHAM control: Procollagen-proline, 2-oxoglutarate 4-dioxygenase (proline 4-hydroxylase), alpha polypeptide II: 0.8 fold
  Fold change relative to SHAM control: SET domain, bifurcated 1: 0.8 fold
  Fold change relative to SHAM control: SPARC-like 1 (mast9, hevin): 1.1 fold
  Fold change relative to SHAM control: Secreted protein, acidic, cysteine-rich (osteonectin): 0.8 fold
  Fold change relative to SHAM control: Serine (or cysteine) proteinase inhibitor, clade H (heat shock protein 47), member 1, (collagen binding protein 1): 0.7 fold
  Fold change relative to SHAM control: Solute carrier family 22 (organic cation transporter), member 1-like: 0.8 fold
  Fold change relative to SHAM control: Solute carrier family 25 (mitochondrial carrier; adenine nucleotide translocator), member 5: 0.8 fold
  Fold change relative to SHAM control: Stem cell growth factor; lymphocyte secreted C-type lectin: 0.7 fold
  Fold change relative to SHAM control: Tenascin C (hexabrachion): 0.8 fold
  Fold change relative to SHAM control: Testis Enhanced Gene Transcript (Bax Inhibitor 1): 1.1 fold
  Fold change relative to SHAM control: Thioredoxin interacting protein: 1.7 fold
  Fold change relative to SHAM control: Transforming growth factor, beta-induced, 68 kda: 0.8 fold
  Fold change relative to SHAM control: Ubiquinol-cytochrome c reductase, Rieske iron-sulfur polypeptide 1: 0.8 fold
Table 46
  Fold change relative to OVX: Insulin receptor: 0.9 fold
Table 51
  Fold change relative to OVX: Insulin receptor: 0.9 fold
  Fold change relative to SHAM control: Insulin receptor: 1.4 fold
Entry with OVX average 39
  Fold change relative to OVX: Fibronectin 1: 2.3 fold
Entry with OVX average 79
  Fold change relative to OVX: Bone morphogenetic protein 1: 1.2 fold
Entry with OVX average 93
  Fold change relative to OVX: Bone morphogenetic protein 1: 1.4 fold
Entry with OVX average 102
  Fold change relative to OVX: Insulin-like growth factor 1 (somatomedin C): 1.5 fold
Entry with OVX average 124
  Fold change relative to OVX: Fibrillin 1 (Marfan syndrome): 2.1 fold
Entry with OVX average 154
  Fold change relative to OVX: Collagen, type I, alpha 2: 3.2 fold
Entry with OVX average 156
  Fold change relative to OVX: Insulin-like growth factor 1 (somatomedin C): 2.2 fold
Entry with OVX average 171
  Fold change relative to OVX: Solute carrier family 2 (facilitated glucose/fructose transporter), member 5: 1.2 fold
Entry with OVX average 176
  Fold change relative to OVX: Solute carrier family 2 (facilitated glucose/fructose transporter), member 5: 1.0 fold
Entry with OVX average 182
  Fold change relative to OVX: Collagen, type IV, alpha 1: 1.8 fold
Entry with OVX average 224
  Fold change relative to OVX: Cyclin-dependent kinase inhibitor 1C (p57, Kip2): 0.9 fold
Entry with OVX average 310
  Fold change relative to OVX: Insulin-like growth factor 1 (somatomedin C): 2.3 fold
Entry with OVX average 419
  Fold change relative to OVX: Fibronectin 1: 2.2 fold
Entry with OVX average 527
  Fold change relative to OVX: Cyclin-dependent kinase inhibitor 1C (p57, Kip2): 1.2 fold
Entry with OVX average 586
  Fold change relative to OVX: Fibronectin 1: 2.2 fold
Entry with OVX average 648
  Fold change relative to OVX: Fibronectin 1: 1.7 fold
Entry with OVX average 690
  Fold change relative to OVX: Collagen, type IV, alpha 1: 1.2 fold
Entry with OVX average 757
  Fold change relative to OVX: Fibronectin 1: 1.9 fold
Entry with OVX average 762
  Fold change relative to OVX: Cyclin-dependent kinase inhibitor 1C (p57, Kip2): 1.1 fold
Entry with OVX average 811
  Fold change relative to OVX: ATP synthase, H+ transporting, mitochondrial F0 complex, subunit c (subunit 9) isoform 3: 1.2 fold
Entry with OVX average 874
  Fold change relative to OVX: Fibrillin 1 (Marfan syndrome): 1.5 fold
Entry with OVX average 1007
  Fold change relative to OVX: ATP synthase, H+ transporting, mitochondrial F0 complex, subunit c (subunit 9) isoform 3: 1.2 fold
Entry with OVX average 1084
  Fold change relative to OVX: Collagen, type III, alpha 1 (Ehlers-Danlos syndrome type IV, autosomal dominant): 1.9 fold
Entry with OVX average 2757
  Fold change relative to OVX: Collagen, type I, alpha 2: 2.2 fold
Entry with OVX average 3445
  Fold change relative to OVX: Collagen, type III, alpha 1 (Ehlers-Danlos syndrome type IV, autosomal dominant): 2.0 fold
Entry with OVX average 9495
  Fold change relative to OVX: H3 histone, family 3A: 0.9 fold
Entry with OVX average 9692
  Fold change relative to OVX: H3 histone, family 3A: 1.0 fold
Entry with SHAM average 100
  Fold change relative to SHAM control: Fibronectin 1: 0.9 fold
Entry with SHAM average 143
  Fold change relative to SHAM control: Bone morphogenetic protein 1: 0.7 fold
Entry with SHAM average 201
  Fold change relative to SHAM control: Cyclin-dependent kinase inhibitor 1C (p57, Kip2): 1.0 fold
Entry with SHAM average 205
  Fold change relative to SHAM control: Bone morphogenetic protein 1: 0.6 fold
Entry with SHAM average 226
  Fold change relative to SHAM control: Insulin-like growth factor 1 (somatomedin C): 0.7 fold
Entry with SHAM average 236
  Fold change relative to SHAM control: Fibrillin 1 (Marfan syndrome): 1.1 fold
Entry with SHAM average 291
  Fold change relative to SHAM control: Solute carrier family 2 (facilitated glucose/fructose transporter), member 5: 0.6 fold
Entry with SHAM average 317
  Fold change relative to SHAM control: Solute carrier family 2 (facilitated glucose/fructose transporter), member 5: 0.7 fold
Entry with SHAM average 417
  Fold change relative to SHAM control: Insulin-like growth factor 1 (somatomedin C): 0.8 fold
Entry with SHAM average 436
  Fold change relative to SHAM control: Collagen, type IV, alpha 1: 0.7 fold
Entry with SHAM average 459
  Fold change relative to SHAM control: Cyclin-dependent kinase inhibitor 1C (p57, Kip2): 1.4 fold
Entry with SHAM average 493
  Fold change relative to SHAM control: Collagen, type I, alpha 2: 1.0 fold
Entry with SHAM average 581
  Fold change relative to SHAM control: Insulin-like growth factor 1 (somatomedin C): 1.2 fold
Entry with SHAM average 660
  Fold change relative to SHAM control: Cyclin-dependent kinase inhibitor 1C (p57, Kip2): 1.3 fold
Entry with SHAM average 920
  Fold change relative to SHAM control: Fibronectin 1: 1.0 fold
Entry with SHAM average 1045
  Fold change relative to SHAM control: ATP synthase, H+ transporting, mitochondrial F0 complex, subunit c (subunit 9) isoform 3: 0.9 fold
Entry with SHAM average 1089
  Fold change relative to SHAM control: Fibronectin 1: 1.2 fold
Entry with SHAM average 1143
  Fold change relative to SHAM control: Collagen, type IV, alpha 1: 0.7 fold
Entry with SHAM average 1288
  Fold change relative to SHAM control: Fibronectin 1: 0.9 fold
Entry with SHAM average 1301
  Fold change relative to SHAM control: Fibronectin 1: 1.1 fold
Entry with SHAM average 1355
  Fold change relative to SHAM control: ATP synthase, H+ transporting, mitochondrial F0 complex, subunit c (subunit 9) isoform 3: 0.9 fold
Entry with SHAM average 1388
  Fold change relative to SHAM control: Fibrillin 1 (Marfan syndrome): 1.0 fold
Entry with SHAM average 2992
  Fold change relative to SHAM control: Collagen, type III, alpha 1 (Ehlers-Danlos syndrome type IV, autosomal dominant): 0.7 fold
Entry with SHAM average 7354
  Fold change relative to SHAM control: Collagen, type III, alpha 1 (Ehlers-Danlos syndrome type IV, autosomal dominant): 1.0 fold
Entry with SHAM average 7758
  Fold change relative to SHAM control: Collagen, type I, alpha 2: 0.8 fold
Entry with SHAM average 9408
  Fold change relative to SHAM control: H3 histone, family 3A: 0.9 fold
Entry with SHAM average 10239
  Fold change relative to SHAM control: H3 histone, family 3A: 1.0 fold
